In paper PMC7672115 (Scientific Reports, 2020):
Read-outs that look alike come from different tables or passages of the source.

How the values were obtained:
Vero E6 cells = experiment: in vitro; format: cell-based; settings: Vero E6, post-infection treatment setting, 48 h
Procedure: (§1) Cells were seeded on 96-well plates at 5 × 10^4 cells/well and treated with various concentrations of the extracts or purified compounds for 48 h. Cell viability was evaluated by an MTT colorimetric assay. In brief, the medium was replaced with MTT [3-(4,5-dimethylthiazol-2-yl)-2,5-diphenyltetrazolium bromide] (Sigma-Aldrich, USA) and incubated for 4 h at 37 °C in a humidified incubator with 5% CO2. The formazan crystal was dissolved with DMSO (Merck, Germany) and measured at a wavelength of 570 nm by EnVision Multilabel Reader (PerkinElmer, USA). Data was normalized versus the solvent control, and then CC50 values were calculated using GraphPad Prism 7.

SARS-CoV-2 [1] = settings: for SI (CC50/IC50): post-infection, Vero E6
SARS-CoV-2 [2] = experiment: microbe, parasite or virus in culture; settings: Severe acute respiratory syndrome coronavirus 2, Vero C1008, 48 h, read-out: IC50 (virus inhibition, high-content imaging/IFA)
in vitro [3] = format: cell-based
Procedure: as §1

SARS-CoV-2 [4] = experiment: microbe, parasite or virus in culture; format: cell-based; settings: for IC50: read-out: IC50 (plaque reduction assay); for concentration with absolute inhibition of the infectious virion production: post-treatment approach, Vero E6, plaque assay
SARS-CoV-2 [5] = experiment: microbe, parasite or virus in culture; format: cell-based; settings: for %Inhibition at 10 µM: purified compounds
SARS-CoV-2 [6] = settings: pre-entry, Vero E6
SARS-CoV-2 [7] = experiment: microbe, parasite or virus in culture; format: cell-based
SARS-CoV-2 [8] = experiment: Plaque reduction assay of viral output, pre-entry treatment, Vero E6 cells; format: cell-based
SARS-CoV-2 [9] = experiment: microbe, parasite or virus in culture; format: cell-based; remark: listed apart in the source
[10] = test system: HepG2, imHC, HK-2, SH-SY5Y, Caco-2; experiment: Cell viability assay (MTT) in various human cell types; format: cell-based; settings: 0 - 100 µM, 48 h
SARS-CoV-2 [11] = experiment: microbe, parasite or virus in culture; format: cell-based; settings: Vero E6
[12] = Cell viability assay (MTT) in Calu-3 cells; settings: human
SARS-CoV-2 [13] = experiment: microbe, parasite or virus in culture; settings: Severe acute respiratory syndrome coronavirus 2, Vero C1008, read-out: IC50 (virus inhibition, high-content imaging)
in vitro [14] = settings: human
[15] = Vero E6, post-infection treatment setting, 48 h, read-out: CC50
[16] = Severe acute respiratory syndrome coronavirus 2, Vero C1008, 48 h
[17] = Vero E6, pre-entry treatment setting, read-out: CC50
[18] = Severe acute respiratory syndrome coronavirus 2, Vero C1008, post-infection treatment, Vero E6, 48 h
[19] = Severe acute respiratory syndrome coronavirus 2, Vero C1008, purified compounds, single dose 10 µM, Vero E6, SARS-CoV-2 25TCID50, read-out: %Inhibition at 10 µM
[20] = single dose 10 µM, Vero E6, SARS-CoV-2 25TCID50

Ivermectin [reference compound]
CC50 (Vero E6 cells): 31.7 µM | IC50 (SARS-CoV-2 [1]; read-out: IC50 (virus inhibition, high-content imaging/IFA), post-infection treatment, Vero E6, 48 h): 12.7 µM

CCCCC[C@H](O)CC(=O)CCc1ccc(O)c(OC)c1 [6-Gingerol]
IC50 (SARS-CoV-2 [2]): > 100 µM | CC50 at 48 h (in vitro [3]; [15]): > 100 µM | IC50 (SARS-CoV-2 [4]; [16]): 1.38 µM | inhibition at 10 µM (SARS-CoV-2 [5]; Severe acute respiratory syndrome coronavirus 2, Vero C1008, read-out: %Inhibition at 10 µM): 7.78% | inhibitory activity against SARS-CoV-2 infection (in words) (SARS-CoV-2 [5]; extract at 10 µg/mL, compound at 10 µM): mild effect

COc1cc(O)c(C(=O)[C@@H]2[C@H](CC=C(C)C)C(C)=CC[C@H]2c2ccccc2)c(O)c1 [Panduratin A]
IC50 (SARS-CoV-2 [2]): 0.81 µM | SI (CC50/IC50) (SARS-CoV-2 [6]): 8.20 | CC50 at 48 h (in vitro [3]; [15]): 14.7 µM | CC50 at 48 h (in vitro [3]; [17]): 43.5 µM | IC50 (SARS-CoV-2 [7]; Severe acute respiratory syndrome coronavirus 2, post-treatment, Calu-3, read-out: IC50 (plaque assay)): 0.53 µM | IC50 (SARS-CoV-2 [8]; Severe acute respiratory syndrome coronavirus 2, Vero C1008, Vero E6): 7.62 µM | dose with absolute suppression of the infectious virion production (SARS-CoV-2 [8]; Vero E6, plaque assay): 50 µM | IC50 (SARS-CoV-2 [9]; Severe acute respiratory syndrome coronavirus 2, post-treatment, Calu-3, read-out: IC50 (virus inhibition, high-content imaging/IFA)): 2.04 µM | SI (CC50/IC50) (SARS-CoV-2 [1]): 18.16 | cytotoxicity at the therapeutic window (in words) [10]: no or minimal cytotoxicity | antiviral effect (in words) (SARS-CoV-2 [11]; cells treated with extract/compound before viral adsorption): did not exerted a dramatic antiviral effect | IC50 (SARS-CoV-2 [4]; [18]): 0.078 µM | concentration with absolute inhibition of the infectious virion production (SARS-CoV-2 [4]): 5 µM | inhibition at 10 µM (SARS-CoV-2 [5]; [19]): 99.9% | %Inhibition at 10 µM (SARS-CoV-2 [5]; single dose 10 µM, Vero E6, SARS-CoV-2 25TCID50, listed as ECDD-NPA): 99.97% | CC50 at 48 h [12]: 43.9 µM | IC50 (SARS-CoV-2 [13]): 5.3 µM

CCN(CCO)CCCC(C)Nc1ccnc2cc(Cl)ccc12 (stereo not shown) [Hydroxychloroquine, reference compound]
IC50 (SARS-CoV-2 [2]): 5.08 µM | SI (CC50/IC50) (SARS-CoV-2 [6]): > 12.39 | CC50 at 48 h (in vitro [3]; African green monkey, Vero E6, post-infection treatment setting, 48 h, read-out: CC50): > 100 µM | CC50 at 48 h (in vitro [3]; African green monkey, Vero E6, pre-infection phase setting, read-out: CC50): > 100 µM | CC50 at 48 h (in vitro [3]; [17]): > 100 µM | SI (CC50/IC50) (SARS-CoV-2 [1]): > 19.68 | IC50 (SARS-CoV-2 [11]; Severe acute respiratory syndrome coronavirus 2, Vero C1008, pre-infection phase, read-out: IC50 (virus inhibition, high-content imaging)): 20.6 µM | IC50 (SARS-CoV-2 [4]; [18]): 0.282 µM | IC50 (SARS-CoV-2 [13]): 8.07 µM

C=C1CC[C@@H]2[C@](C)(CO)[C@H](O)CC[C@@]2(C)[C@@H]1C/C=C1/C(=O)OC[C@H]1O [Andrographolide]
IC50 (SARS-CoV-2 [2]): 6.58 µM | CC50 at 48 h (in vitro [3]; African green monkey, CC50): 27.8 µM | IC50 (SARS-CoV-2 [4]; [18]): 0.28 µM | concentration with absolute inhibition of the infectious virion production (SARS-CoV-2 [4]): 12.5 µM | inhibition at 10 µM (SARS-CoV-2 [5]; [19]): 99.9% | %Inhibition at 10 µM (SARS-CoV-2 [5]; single dose 10 µM, Vero E6, SARS-CoV-2 25TCID50, listed as ECDD-NAD): 99.97%

CCC(CC)COC(=O)[C@H](C)N[P@](=O)(OC[C@H]1O[C@@](C#N)(c2ccc3c(N)ncnn23)[C@H](O)[C@@H]1O)Oc1ccccc1 [Remdesivir, reference compound]
IC50 (SARS-CoV-2 [2]): 2.71 µM | IC50 (SARS-CoV-2 [7]; Severe acute respiratory syndrome coronavirus 2, Calu-3, read-out: IC50 (plaque assay)): 0.086 µM | IC50 (SARS-CoV-2 [9]; Severe acute respiratory syndrome coronavirus 2, Calu-3, read-out: IC50 (virus inhibition, high-content imaging/IFA)): 0.043 µM | IC50 (SARS-CoV-2 [4]; [16]): 2.65 µM | CC50 (in vitro [14]): 16 µM

CCCCCCC[C@H](O)CC(=O)CCc1ccc(O)c(OC)c1 [ECDD-DPM-N95, 8-Gingerol]
%Inhibition at 10 µM (SARS-CoV-2 [5]; [20]): 17.59%

CCCCC/C=C/C(=O)CCc1ccc(O)c(OC)c1 [ECDD-DPM-N97, 6-Shogaol]
%Inhibition at 10 µM (SARS-CoV-2 [5]; [20]): 12.17%

CCCCCCCCC[C@H](O)CC(=O)CCc1ccc(O)c(OC)c1 [ECDD-DPM-N96, 10-Gingerol]
%Inhibition at 10 µM (SARS-CoV-2 [5]; [20]): 23.51%

CCCCCCCCC/C=C/C(=O)CCc1ccc(O)c(OC)c1 [MUC1775, 10-Shogaol]
%Inhibition at 10 µM (SARS-CoV-2 [5]; [20]): 5.7%

COc1c(O)cc2oc3cc(O)c(CC=C(C)C)c(O)c3c(=O)c2c1CC=C(C)C [ECDD-NAM, alpha-mangostin]
%Inhibition at 10 µM (SARS-CoV-2 [5]; [20]): 9.08%
